Measured values as given in ChEMBL document CHEMBL1201862, “PubChem BioAssay data set” (2004).
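Compound exposure: 48 hours, 5 concentrations, 96-well plates. Here, GI50 denotes the concentration required for 50% inhibition of growth.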 Calls of active or inactive are those of the source. Cut-off read from the data, not from the text of the source: active = GI50 up to about 1.1 µM and inactive = higher. *1 amine or outer side, *2 acyl side, *3 side chain or, on linkers, in order; H or OH if unused. Where a SMILES comes first, the peptide text is derived from it. Bridges are numbered along the chain shown (N, C = ends). [ ]: non-standard residue; d: D form. The star is where a group is joined. X56 = CC(C)C(C)C(C(=O)[*:2])N(C)[*:1]; Picolinoyl(3-OH) = O=C(c1ncccc1O)*; NMePhg = CN[CH](C(=O)O)c1ccccc1; Hyp = O=C(O)[CH]1C[CH](O)CN1; Sar = CNCC(=O)O

Experiments:
Experiment in all cases: NCI-60 cell line screen, 48 h
[1] = system: SK-OV-3
[2] = system: A549
[3] = system: M19-MEL
[4] = system: NCI-H522
[5] = system: SNB-19
[6] = system: HCT-15
[7] = system: IGROV-1
[8] = system: UACC-257
[9] = system: SF-268
[10] = system: SK-MEL-5
[11] = system: NCI-H23
[12] = system: LOX IMVI
[13] = system: OVCAR-4
[14] = system: CCRF-CEM
[15] = system: UO-31
[16] = system: CAKI-1
[17] = system: MOLT-4
[18] = system: UACC-62
[19] = system: KM12
[20] = system: K562
[21] = system: XF498
[22] = system: U-251
[23] = system: NCI-H460
[24] = system: HOP-18
[25] = system: SK-MEL-28
[26] = system: SK-MEL-2
[27] = system: HT-29
[28] = system: HCT-116
[29] = system: DMS-114
[30] = system: COLO 205
[31] = system: SNB-75
[32] = system: OVCAR-3
[33] = system: HL-60
[34] = system: OVCAR-5
[35] = system: HCC 2998
[36] = system: EKVX
[37] = system: DMS-273
[38] = system: HOP-62
[39] = system: SN12C
[40] = system: SW-620
[41] = system: HOP-92
[42] = system: OVCAR-8
[43] = system: SF-539
[44] = system: NCI/ADR-RES
[45] = system: RPMI-8226
[46] = system: A498
[47] = system: SF-295
[48] = system: DLD-1
[49] = system: MCF7
[50] = system: NCI-H226
[51] = system: SNB-78
[52] = system: KM-20L2
[53] = system: RXF 393
[54] = system: Malme-3M

COc1ccc2[nH]cc(/C=C(/C)c3ccncc3)c2c1
GI50 [1]: 4.41 µM (inactive) | GI50 [2]: 8.36 µM (inactive) | GI50 [3]: 3.72 µM (inactive) | GI50 [4]: 2.63 µM (inactive) | GI50 [5]: 50.6 µM (inactive) | GI50 [6]: 1.19 µM | GI50 [7]: 13.2 µM (inactive) | GI50 [8]: 7.48 µM (inactive) | GI50 [9]: 11.1 µM (inactive) | GI50 [10]: 3.1 µM (inactive) | GI50 [11]: 2.59 µM (inactive) | GI50 [12]: 6.28 µM (inactive) | GI50 [13]: 65 µM (inactive) | GI50 [14]: 3.13 µM (inactive) | GI50 [15]: 23.2 µM (inactive) | GI50 [16]: 9.73 µM (inactive) | GI50 [17]: 3.62 µM (inactive) | GI50 [18]: 5.01 µM (inactive) | GI50 [19]: 2.44 µM (inactive) | GI50 [20]: 2.98 µM (inactive) | GI50 [21]: 10.7 µM (inactive) | GI50 [22]: 5.3 µM (inactive) | GI50 [23]: 3.57 µM (inactive) | GI50 [24]: > 100 µM (inactive) | GI50 [25]: 4.94 µM (inactive) | GI50 [26]: 5.38 µM (inactive) | GI50 [27]: 3.25 µM (inactive) | GI50 [28]: 4.15 µM (inactive) | GI50 [29]: 2.62 µM (inactive) | GI50 [30]: 3.1 µM (inactive) | GI50 [31]: 2.38 µM (inactive) | GI50 [32]: 5.7 µM (inactive) | GI50 [33]: 1.44 µM (inactive) | GI50 [34]: 33.1 µM (inactive) | GI50 [35]: 8.24 µM (inactive) | GI50 [36]: 15.6 µM (inactive) | GI50 [37]: 1.57 µM (inactive) | GI50 [38]: 7.64 µM (inactive) | GI50 [39]: 8.59 µM (inactive) | GI50 [40]: 3.83 µM (inactive) | GI50 [41]: 6.47 µM (inactive) | GI50 [42]: 16 µM (inactive) | GI50 [43]: 8.36 µM (inactive) | GI50 [44]: 2.94 µM (inactive) | GI50 [45]: 5.89 µM (inactive) | GI50 [46]: 5.07 µM (inactive) | GI50 [47]: 6.35 µM (inactive) | GI50 [48]: 4.52 µM (inactive) | GI50 [49]: 3.47 µM (inactive) | GI50 [50]: 22.6 µM (inactive)

CC(C)CC1NC(=O)C(NC(=O)c2ncccc2O)C(C)OC(=O)C(c2ccccc2)N(C)C(=O)C(C)NC(=O)C(C(C)C(C)C)N(C)C(=O)CN(C)C(=O)C2CC(O)CN2C1=O (stereo not drawn) ({Picolinoyl(3-OH)}-TL[Hyp][Sar][X56]A[NMePhg]; ester 1-C; configuration not given here)
GI50 [1]: > 125 µM (inactive) | GI50 [2]: 52.6 µM (inactive) | GI50 [3]: 68.2 µM (inactive) | GI50 [4]: 124 µM (inactive) | GI50 [5]: 115 µM (inactive) | GI50 [6]: 105 µM | GI50 [7]: 23.8 µM (inactive) | GI50 [8]: 58.2 µM (inactive) | GI50 [9]: 51.3 µM (inactive) | GI50 [10]: 24.3 µM (inactive) | GI50 [11]: 58.6 µM (inactive) | GI50 [12]: > 125 µM (inactive) | GI50 [13]: 66.5 µM (inactive) | GI50 [14]: 60.5 µM (inactive) | GI50 [15]: > 85.5 µM (inactive) | GI50 [16]: 89.1 µM (inactive) | GI50 [17]: 43.2 µM (inactive) | GI50 [18]: 45.1 µM (inactive) | GI50 [19]: 80.4 µM (inactive) | GI50 [20]: 61.8 µM (inactive) | GI50 [21]: 35.6 µM (inactive) | GI50 [22]: 40.8 µM (inactive) | GI50 [23]: 12.3 µM (inactive) | GI50 [24]: 83.6 µM (inactive) | GI50 [25]: 102 µM (inactive) | GI50 [26]: 38.7 µM (inactive) | GI50 [27]: 37.6 µM (inactive) | GI50 [28]: 26.9 µM (inactive) | GI50 [29]: > 119 µM (inactive) | GI50 [30]: 80.2 µM (inactive) | GI50 [51]: > 125 µM (inactive) | GI50 [31]: 36.7 µM (inactive) | GI50 [32]: 104 µM (inactive) | GI50 [33]: 58.9 µM (inactive) | GI50 [34]: > 125 µM (inactive) | GI50 [35]: 78.7 µM (inactive) | GI50 [36]: 10.1 µM (inactive) | GI50 [37]: 34.8 µM (inactive) | GI50 [38]: > 125 µM (inactive) | GI50 [52]: 7.93 µM (inactive) | GI50 [39]: 65.8 µM (inactive) | GI50 [40]: 32.7 µM (inactive) | GI50 [41]: 74.1 µM (inactive) | GI50 [42]: 15.7 µM (inactive) | GI50 [43]: 74.5 µM (inactive) | GI50 [44]: > 125 µM (inactive) | GI50 [45]: 35.8 µM (inactive) | GI50 [53]: > 125 µM (inactive) | GI50 [46]: > 107 µM (inactive) | GI50 [47]: 85.7 µM (inactive) | GI50 [48]: 82.4 µM (inactive) | GI50 [54]: 55.5 µM (inactive) | GI50 [49]: 13.7 µM (inactive) | GI50 [50]: 71.1 µM (inactive)

COc1ccc(C2C3CCCC(C3=O)C(c3ccc(OC)cc3)N2N=O)cc1 (stereo not drawn)
GI50 [1]: 37.4 µM (inactive) | GI50 [2]: 34.7 µM (inactive) | GI50 [3]: 32.4 µM (inactive) | GI50 [4]: 17.1 µM (inactive) | GI50 [5]: 36.3 µM (inactive) | GI50 [6]: 36.9 µM | GI50 [7]: 35.5 µM (inactive) | GI50 [8]: 27.9 µM (inactive) | GI50 [9]: 48.5 µM (inactive) | GI50 [10]: 17.7 µM (inactive) | GI50 [11]: 19.5 µM (inactive) | GI50 [12]: 18 µM (inactive) | GI50 [13]: 21.7 µM (inactive) | GI50 [14]: 26.1 µM (inactive) | GI50 [15]: 56.1 µM (inactive) | GI50 [16]: 29.9 µM (inactive) | GI50 [17]: 25.2 µM (inactive) | GI50 [18]: 28.6 µM (inactive) | GI50 [19]: 29.6 µM (inactive) | GI50 [20]: 23.9 µM (inactive) | GI50 [21]: 33.7 µM (inactive) | GI50 [22]: 40.6 µM (inactive) | GI50 [23]: 20.6 µM (inactive) | GI50 [24]: 8.91 µM (inactive) | GI50 [25]: 40.3 µM (inactive) | GI50 [26]: 20.5 µM (inactive) | GI50 [27]: 21.4 µM (inactive) | GI50 [28]: 29 µM (inactive) | GI50 [29]: 23.1 µM (inactive) | GI50 [30]: 20.1 µM (inactive) | GI50 [51]: > 66.4 µM (inactive) | GI50 [31]: 26.5 µM (inactive) | GI50 [32]: 6.71 µM (inactive) | GI50 [33]: 25.2 µM (inactive) | GI50 [34]: > 55.6 µM (inactive) | GI50 [35]: 28.9 µM (inactive) | GI50 [36]: 56.9 µM (inactive) | GI50 [37]: 23 µM (inactive) | GI50 [38]: 38.5 µM (inactive) | GI50 [52]: 30.7 µM (inactive) | GI50 [39]: 18.5 µM (inactive) | GI50 [40]: 42.9 µM (inactive) | GI50 [41]: 41.7 µM (inactive) | GI50 [42]: 37 µM (inactive) | GI50 [43]: > 10 µM (inactive) | GI50 [44]: 32.4 µM (inactive) | GI50 [45]: 20.7 µM (inactive) | GI50 [53]: 18.9 µM (inactive) | GI50 [46]: 15.2 µM (inactive) | GI50 [47]: 20.7 µM (inactive) | GI50 [48]: 33.9 µM (inactive) | GI50 [54]: 7.85 µM (inactive) | GI50 [49]: 18.8 µM (inactive) | GI50 [50]: 23.3 µM (inactive)
